# Legend:
# Assay type in all cases: cell-based
# Conditions in all cases: paper strips on potato dextrose agar, 25° C., 24 hours
# Aspergillus niger = test: Mycelial inhibition test, Aspergillus niger
# Fusarium moniloforma = test: Mycelial inhibition test, Fusarium moniloforma
# Rhizoctonia solani = test: Mycelial inhibition test, Rhizoctonia solani
Compound,"Mycelia Inhibition, micrograms/cm for 99% control, A (Aspergillus niger) [micrograms/cm]","Mycelia Inhibition, micrograms/cm for 99% control, F (Fusarium moniloforma) [micrograms/cm]","Mycelia Inhibition, micrograms/cm for 99% control, R (Rhizoctonia solani) [micrograms/cm]"
CNS(=O)(=O)C(Cl)=C(Cl)Cl [Compound 13],> 1.7,> 1.7,> 1.7
Cc1cccc(C)c1NS(=O)(=O)C(Cl)=C(Cl)Cl [Compound 17],> 1.7,> 1.7,> 1.7
Cc1ccc(N(SC(Cl)(Cl)Cl)S(=O)(=O)C(Cl)=C(Cl)Cl)cc1 [Compound 11],> 1.7,> 1.7,> 1.7
CC(C)NS(=O)(=O)C(Cl)=C(Cl)Cl [Compound 14],> 1.7,> 1.7,> 1.7
CC(C)N(SC(Cl)(Cl)Cl)S(=O)(=O)C(Cl)=C(Cl)Cl [Compound 4],0.68,> 1.7,0.19
Cc1ccc(NS(=O)(=O)C(Cl)=C(Cl)Cl)cc1 [Compound 18],> 1.7,> 1.7,> 1.7
O=S(=O)(Nc1ccccc1)C(Cl)=C(Cl)Cl [Compound 16],> 1.7,> 1.7,> 1.7
O=S(=O)(C(Cl)=C(Cl)Cl)N(SC(Cl)(Cl)Cl)C1CCCCC1 [Compound 5],> 1.7,> 1.7,1.1
Cc1cc(Sc2ccccc2)ccc1NS(=O)(=O)C(Cl)=C(Cl)Cl [Compound 20],> 1.7,> 1.7,> 1.7
O=S(=O)(Nc1ccc(Cl)c(Cl)c1)C(Cl)=C(Cl)Cl [Compound 21],> 1.7,> 1.7,> 1.7
O=S(=O)(NC1CCCCC1)C(Cl)=C(Cl)Cl [Compound 15],> 1.7,> 1.7,> 1.7
"O=S(=O)(Nc1ccc(Cl)cc1)C(Cl)=C(Cl)Cl [Compound 19, N-(p-chlorophenyl)trichlorovinylsulfonamide]",> 1.7,> 1.7,> 1.7
"CN(SC(Cl)(Cl)Cl)S(=O)(=O)C(Cl)=C(Cl)Cl [Compound 1, N-methyl-N-(trichloromethylthio)trichlorovinylsulfonamide]",0.42,1.7,0.18
"O=S(=O)(C(Cl)=C(Cl)Cl)N(SC(Cl)(Cl)Cl)c1ccccc1 [Compound 7, N-phenyl-N-(trichloromethylthio)trichlorovinylsulfonamide]",> 1.5,> 1.7,> 1.7
Cc1cccc(C)c1N(SC(Cl)(Cl)Cl)S(=O)(=O)C(Cl)=C(Cl)Cl [Compound 9],> 1.7,> 1.7,0.33

# Source: patent publication US4160845A, “Fungicidal N-(haloaliphaticthio)halovinylsulfonamides” (Chevron Research Company, priority 1976, dated 1979)
